Results reported in patent US11992497B2 (priority 2021, dated 2024).
Read-outs that look alike come from different tables or passages of the source.

Tests used:
[1] = system: lipopolysaccharide (LPS)-induced inflammation; assay: Rat LPS model, serum pro-inflammatory cytokines; type: in vivo, Sprague Dawley rats; details: oral, 4 days; 2 h after LPS
Experimental: This assay was employed to determine the efficacies of CBG, compound 1, and compound 2 against lipopolysaccharide (LPS)-induced inflammation in Sprague Dawley rats.
Eight- to 10-week-old male rats were treated with CBG, Compound 1, and Compound 2, or a positive control (cyclosporin A) for four days prior to treatment with LPS. Twenty-eight (28) Sprague Dawley male rats, 8-10 weeks old, were used for this study. Animals were randomized by weight into one of 7 treatment groups as shown in Table 10 below and treated for 4 days with either vehicle control (Groups 1 and 2), Cyclosporin A (Neoral) (Group 3), CBG at 30 mg/kg (Group 4), Compound 1 at 31.5 mg/kg (Group 5), Compound 2 at 32.7 mg/kg (Group 6) or CBG at 30 mg/kg (intraperitoneal/IP; Group 7). Groups 1-6 were dosed for 4 days by oral gavage; group 7 was dosed for 4 days by IP injection. After the 4th injection, Groups 2-7 received a single IP injection of LPS at 5 mg/kg to induce inflammation. Body weight was recorded every other day starting on the day of or day prior to the first day of treatment. A terminal body weight was recorded. General health and clinical signs were recorded once daily. Blood was collected to isolate immune cells at 2 hours after the LPS injection. […]
Serum samples (N=82) were processed and shipped to Inotiv Boulder for analysis. […] The samples were analyzed for cytokine levels using the RECYTMAG-65K Luminex™ kit. […]

[2] = Quantification of CBG and CBG glucuronide in rat plasma (LC-MS/MS); type: in vivo, Sprague-Dawley rat
Experimental: The purpose of this study was to quantify cannabigerol (CBG) in rat plasma and brain.
Seven- to nine-week-old male and female Sprague-Dawley received either a single dose or once daily dosing for 21 days of vehicle or CBG at three different dosage levels as shown in the Table below.
Approximately 0.2-0.25 mL blood was collected during the first 24 hours after the single dose, and at multiple times points after the terminal dose for the animals receiving daily dosing for 21 days. Liver, kidney, and colon samples were collected and fixed in 10% NBF for 48 hours, then stored in 70% ethanol at room temperature. Brain samples were collected and flash frozen.
Analytical curves were constructed using non-zero standards with CBG concentration ranging from 0.0025 to 2.500 μg/mL and 2.500-100.0 μg/mL in blank rat plasma samples and 1.0 to 2500 ng/mL in blank brain tissues. A blank sample was used to exclude contamination.
Instrument Used: AB SCIEX QTRAP 4500/Shimadzu Prominence LC

[3] = Metabolic stability in human intestine microsomes (UDPGA, UGT activity only); type: in vitro ADME; details: human, pooled intestinal microsomes, pH 7.4, 1 μM, 0.5 mg/mL microsomes + alamethicin, UDPGA
Experimental: (§1) The objective of this study was to investigate the stability of the test compound, CBG, in the presence of intestinal microsomes that only have UGT activity and no CYP activity.
(§2) Test compound (1 μM) was incubated with pooled intestinal microsomes at 6 time points over the course of a 60 min assay and the test compound is analyzed by LC-MS/MS.
(§3) The final incubation volume is 500 μL. A minus cofactor control incubation was included for each compound tested where 0.1 M Tris, 5 mM MgCl2 buffer pH 7.4 is added instead of UDPGA (minus UDPGA). Two control compounds were included. All incubations were performed singularly for each test compound.
(§4) Each compound was incubated for 0, 5, 10, 20, 40 and 60 min. The control (minus UDPGA) was incubated for 60 min only. The reactions were stopped by transferring incubate into acetonitrile at the appropriate time points, in a 1:3 ratio. The termination plates were centrifuged at 3,000 rpm for 20 min at 4° C. to precipitate the protein.
(§5) Following protein precipitation, the sample supernatants were combined in cassettes of up to 4 compounds, internal standard was added and samples analysed using Cyprotex generic LC-MS/MS conditions.
(§6) From a plot of ln peak area ratio (compound peak area/internal standard peak area) against time, the gradient of the line was determined. Subsequently, half-life and intrinsic clearance were calculated using the equations below: […]

[4] = system: human intestine microsomes; assay: as above; type: in vitro ADME
Experimental: as §1, §2, §3, §4, §5, §6

In the case of CCCCCc1cc(OC)c(C/C=C(\C)CCC=C(C)C)c(OC)c1 [Compound 2, (E)-2-(3,7-dimethylocta-2,6-dien-1-yl)-1,3-dimethoxy-5-pentylbenzene], the “reduction of IL-1B and IFNy relative to CBG (in words)” value [1] is reported as “equal to or better than CBG”.

With CCCCCc1cc(O)c(C/C=C(\C)CCC=C(C)C)c(O)c1 [CBG, cannabigerol] the “CBG concentration in rat plasma (Day 21)” value ([2]; CBG 10 mg/kg oral gavage once daily, 15 min post Rx) was “BLQ (BLQ—Below Limit of Quantification (2.5 ng/ml))”, the “CBG concentration in rat plasma (Day 21)” value ([2]; CBG 10 mg/kg oral gavage once daily, 30 min post Rx) was “BLQ (BLQ—Below Limit of Quantification (2.5 ng/ml))” and the “CBG concentration in rat plasma (Day 21)” value ([2]; CBG 10 mg/kg oral gavage once daily, 24 hr post Rx) was “BLQ (BLQ—Below Limit of Quantification (2.5 ng/ml))”. The “CBG concentration in rat plasma (Day 1)” value ([2]; CBG 10 mg/kg oral gavage once, 15 min post Rx) was “BLQ (BLQ—Below Limit of Quantification (2.5 ng/ml))”, the “CBG concentration in rat plasma (Day 1)” value ([2]; CBG 10 mg/kg oral gavage once, 30 min post Rx) was “BLQ (BLQ—Below Limit of Quantification (2.5 ng/ml))” and the “CBG concentration in rat plasma (Day 1)” value ([2]; CBG 10 mg/kg oral gavage once, 4 hr post Rx) was “BLQ (BLQ—Below Limit of Quantification (2.5 ng/ml))”. For the same molecule, the “CBG concentration in rat plasma (Day 1)” value ([2]; CBG 10 mg/kg oral gavage once, 8 hr post Rx) was “BLQ (BLQ—Below Limit of Quantification (2.5 ng/ml))”, the “CBG concentration in rat plasma (Day 1)” value ([2]; CBG 10 mg/kg oral gavage once, 24 hr post Rx) was “BLQ (BLQ—Below Limit of Quantification (2.5 ng/ml))” and the “CBG concentration in rat plasma (Day 21)” value ([2]; CBG 30 mg/kg oral gavage once daily, 30 min post Rx) was “BLQ (BLQ—Below Limit of Quantification (2.5 ng/ml))”. The “CBG concentration in rat plasma (Day 21)” value ([2]; CBG 30 mg/kg oral gavage once daily, 1 hr post Rx) was “BLQ (BLQ—Below Limit of Quantification (2.5 ng/ml))”, the “CBG concentration in rat plasma (Day 21)” value ([2]; CBG 30 mg/kg oral gavage once daily, 2 hr post Rx) was “BLQ (BLQ—Below Limit of Quantification (2.5 ng/ml))” and the “CBG concentration in rat plasma (Day 21)” value ([2]; CBG 30 mg/kg oral gavage once daily, 4 hr post Rx) was “BLQ (BLQ—Below Limit of Quantification (2.5 ng/ml))”. For the same molecule, the “CBG concentration in rat plasma (Day 21)” value ([2]; CBG 30 mg/kg oral gavage once daily, 8 hr post Rx) was “BLQ (BLQ—Below Limit of Quantification (2.5 ng/ml))”, the “CBG concentration in rat plasma (Day 21)” value ([2]; CBG 30 mg/kg oral gavage once daily, 24 hr post Rx) was “BLQ (BLQ—Below Limit of Quantification (2.5 ng/ml))” and the “CBG concentration in rat plasma (Day 1)” value ([2]; CBG 30 mg/kg oral gavage once, 8 hr post Rx) was “BLQ (BLQ—Below Limit of Quantification (2.5 ng/ml))”. The “CBG concentration in rat plasma (Day 21)” value ([2]; CBG 100 mg/kg oral gavage once daily, 24 hr post Rx) was “BLQ (BLQ—Below Limit of Quantification (2.5 ng/ml))”, the “CBG concentration in rat plasma (Day 1)” value ([2]; CBG 100 mg/kg oral gavage once, 15 min post Rx) was “BLQ (BLQ—Below Limit of Quantification (2.5 ng/ml))” and the “CBG concentration in rat plasma (Day 1)” value ([2]; CBG 100 mg/kg oral gavage once, 30 min post Rx) was “BLQ (BLQ—Below Limit of Quantification (2.5 ng/ml))”. The “CBG concentration in rat plasma (Day 1)” value ([2]; CBG 100 mg/kg oral gavage once, 1 hr post Rx) was “BLQ (BLQ—Below Limit of Quantification (2.5 ng/ml))”, the “CBG concentration in rat plasma (Day 1)” value ([2]; CBG 100 mg/kg oral gavage once, 2 hr post Rx) was “BLQ (BLQ—Below Limit of Quantification (2.5 ng/ml))” and the “CBG concentration in rat plasma (Day 1)” value ([2]; CBG 100 mg/kg oral gavage once, 8 hr post Rx) was “BLQ (BLQ—Below Limit of Quantification (2.5 ng/ml))”. For the same molecule, the “CBG concentration in rat plasma (Day 1)” value ([2]; CBG 100 mg/kg oral gavage once, 24 hr post Rx) was “BLQ (BLQ—Below Limit of Quantification (2.5 ng/ml))”, the concentration at 1 h ([2]; both sexes, Sprague-Dawley, rat, plasma, oral, 10 mg/kg, CBG 10 mg/kg oral gavage once daily, 1 hr post Rx, read-out: CBG concentration in rat plasma (Day 21)) was 0.00167 µg/mL and the concentration at 4 h ([2]; both sexes, Sprague-Dawley, rat, plasma, oral, 10 mg/kg, CBG 10 mg/kg oral gavage once daily, 4 hr post Rx, read-out: CBG concentration in rat plasma (Day 21)) was 0.00473 µg/mL. For the same molecule, the concentration at 8 h ([2]; both sexes, Sprague-Dawley, rat, plasma, oral, 10 mg/kg, CBG 10 mg/kg oral gavage once daily, 8 hr post Rx, read-out: CBG concentration in rat plasma (Day 21)) was 0.00255 µg/mL, the concentration at 2 h ([2]; both sexes, Sprague-Dawley, rat, plasma, oral, 10 mg/kg, CBG 10 mg/kg oral gavage once, 2 hr post Rx, read-out: CBG concentration in rat plasma (Day 1)) was 0.012 µg/mL and the concentration at 15 min ([2]; both sexes, Sprague-Dawley, rat, plasma, oral, 30 mg/kg, CBG 30 mg/kg oral gavage once, 15 min post Rx, read-out: CBG concentration in rat plasma (Day 1)) was 0.0038 µg/mL. It also gave a concentration at 30 min ([2]; both sexes, Sprague-Dawley, rat, plasma, oral, 30 mg/kg, CBG 30 mg/kg oral gavage once, 30 min post Rx, read-out: CBG concentration in rat plasma (Day 1)) of 0.0152 µg/mL, a concentration at 24 h ([2]; both sexes, Sprague-Dawley, rat, plasma, oral, 30 mg/kg, CBG 30 mg/kg oral gavage once, 24 hr post Rx, read-out: CBG concentration in rat plasma (Day 1)) of 0.00275 µg/mL and a concentration at 15 min ([2]; both sexes, Sprague-Dawley, rat, plasma, oral, 100 mg/kg, CBG 100 mg/kg oral gavage once daily, 15 min post Rx, read-out: CBG concentration in rat plasma (Day 21)) of 0.0416 µg/mL. It also gave a concentration at 30 min ([2]; both sexes, Sprague-Dawley, rat, plasma, oral, 100 mg/kg, CBG 100 mg/kg oral gavage once daily, 30 min post Rx, read-out: CBG concentration in rat plasma (Day 21)) of 0.178 µg/mL, a concentration at 1 h ([2]; both sexes, Sprague-Dawley, rat, plasma, oral, 100 mg/kg, CBG 100 mg/kg oral gavage once daily, 1 hr post Rx, read-out: CBG concentration in rat plasma (Day 21)) of 0.226 µg/mL and a concentration at 2 h ([2]; both sexes, Sprague-Dawley, rat, plasma, oral, 100 mg/kg, CBG 100 mg/kg oral gavage once daily, 2 hr post Rx, read-out: CBG concentration in rat plasma (Day 21)) of 0.307 µg/mL. The concentration at 4 h ([2]; both sexes, Sprague-Dawley, rat, plasma, oral, 100 mg/kg, CBG 100 mg/kg oral gavage once, 4 hr post Rx, read-out: CBG concentration in rat plasma (Day 1)) was 0.119 µg/mL, the “concentration of CBG in plasma (in words)” value ([2]; oral CBG 10-100 mg/kg, Days 1 and 21) was “low or below the level of quantitation (BLQ)” and the “first pass metabolism to the glucuronide upon oral administration (in words)” value ([2]; oral CBG, rat) was “very high first pass metabolism to the glucuronide”. The half-life at 1 µM [3] was 1.57 min, the microsomal CLint at 1 µM ([3]; from 0 and 5 minute time points only) was 884 µL/min/mg and the “appearance of CBG-glucoronide (in words)” value ([4]; CBG incubated with human intestine microsomes) was “appeared rapidly”. The “Comments: detectability of test compound” value ([4]; by 10 minutes) was “Test compound not detectable” and the “disappearance of parent compound (in words)” value ([4]; incubated with human intestine microsomes) was “disappeared rapidly”.
